Assay: Biodistribution of 123I-IMP in rat with verapamil loading
Details: rats
Method: The rats were decapitated at 2, 5, 10, 30 and 60 minutes after administration. Then the blood was sampled and the organs of interest were excised. After measured the weight of these specimens, the radioactivities of the blood and organs were measured. After half-life of the radioactivities were corrected, the accumulation rate (% dose/g of the tissue) was obtained.

[1] = loaded with verapamil about 10 mg/kg, 2 Minutes

CC(C)NC(C)Cc1ccc(I)cc1 (centres unmarked) [123I-IMP, N-isopropyl-p-iodoamphetamine]
Biodistribution of 123I-IMP, Blood (control group, 2 Minutes): 0.198 ± 0.052 % Dose/g Tissue | Biodistribution of 123I-IMP, Brain (control group, 2 Minutes): 1.800 ± 0.418 % Dose/g Tissue | Biodistribution of 123I-IMP, Heart (control group, 2 Minutes): 1.949 ± 0.293 % Dose/g Tissue | Biodistribution of 123I-IMP, Kidney (control group, 2 Minutes): 3.406 ± 0.905 % Dose/g Tissue | Biodistribution of 123I-IMP, Liver (control group, 2 Minutes): 0.506 ± 0.109 % Dose/g Tissue | Biodistribution of 123I-IMP, Lung (control group, 2 Minutes): 11.236 ± 0.780 % Dose/g Tissue | Biodistribution of 123I-IMP, Pancreas (control group, 2 Minutes): 1.503 ± 0.353 % Dose/g Tissue | Biodistribution of 123I-IMP, Spleen (control group, 2 Minutes): 0.880 ± 0.216 % Dose/g Tissue | Biodistribution of 123I-IMP, Stomach (control group, 2 Minutes): 0.302 ± 0.065 % Dose/g Tissue | Biodistribution of 123I-IMP, Blood (control group, 5 Minutes): 0.133 ± 0.005 % Dose/g Tissue | Biodistribution of 123I-IMP, Brain (control group, 5 Minutes): 1.476 ± 0.225 % Dose/g Tissue | Biodistribution of 123I-IMP, Heart (control group, 5 Minutes): 1.014 ± 0.070 % Dose/g Tissue | Biodistribution of 123I-IMP, Kidney (control group, 5 Minutes): 2.285 ± 0.256 % Dose/g Tissue | Biodistribution of 123I-IMP, Liver (control group, 5 Minutes): 0.699 ± 0.061 % Dose/g Tissue | Biodistribution of 123I-IMP, Lung (control group, 5 Minutes): 9.000 ± 0.600 % Dose/g Tissue | Biodistribution of 123I-IMP, Pancreas (control group, 5 Minutes): 1.923 ± 0.445 % Dose/g Tissue | Biodistribution of 123I-IMP, Spleen (control group, 5 Minutes): 0.999 ± 0.355 % Dose/g Tissue | Biodistribution of 123I-IMP, Stomach (control group, 5 Minutes): 0.500 ± 0.078 % Dose/g Tissue | Biodistribution of 123I-IMP, Blood (control group, 10 Minutes): 0.116 ± 0.011 % Dose/g Tissue | Biodistribution of 123I-IMP, Brain (control group, 10 Minutes): 1.006 ± 0.379 % Dose/g Tissue | Biodistribution of 123I-IMP, Heart (control group, 10 Minutes): 0.631 ± 0.111 % Dose/g Tissue | Biodistribution of 123I-IMP, Kidney (control group, 10 Minutes): 1.303 ± 0.190 % Dose/g Tissue | Biodistribution of 123I-IMP, Liver (control group, 10 Minutes): 0.711 ± 0.143 % Dose/g Tissue | Biodistribution of 123I-IMP, Lung (control group, 10 Minutes): 6.279 ± 1.026 % Dose/g Tissue | Biodistribution of 123I-IMP, Pancreas (control group, 10 Minutes): 1.721 ± 0.217 % Dose/g Tissue | Biodistribution of 123I-IMP, Spleen (control group, 10 Minutes): 1.008 ± 0.074 % Dose/g Tissue | Biodistribution of 123I-IMP, Stomach (control group, 10 Minutes): 0.407 ± 0.230 % Dose/g Tissue | Biodistribution of 123I-IMP, Blood (control group, 30 Minutes): 0.136 ± 0.028 % Dose/g Tissue | Biodistribution of 123I-IMP, Brain (control group, 30 Minutes): 1.346 ± 0.345 % Dose/g Tissue | Biodistribution of 123I-IMP, Heart (control group, 30 Minutes): 0.524 ± 0.037 % Dose/g Tissue | Biodistribution of 123I-IMP, Kidney (control group, 30 Minutes): 1.359 ± 0.222 % Dose/g Tissue | Biodistribution of 123I-IMP, Liver (control group, 30 Minutes): 1.192 ± 0.536 % Dose/g Tissue | Biodistribution of 123I-IMP, Lung (control group, 30 Minutes): 5.209 ± 1.446 % Dose/g Tissue | Biodistribution of 123I-IMP, Pancreas (control group, 30 Minutes): 2.032 ± 0.505 % Dose/g Tissue | Biodistribution of 123I-IMP, Spleen (control group, 30 Minutes): 1.356 ± 0.277 % Dose/g Tissue | Biodistribution of 123I-IMP, Stomach (control group, 30 Minutes): 0.885 ± 0.366 % Dose/g Tissue | Biodistribution of 123I-IMP, Blood (control group, 60 Minutes): 0.181 ± 0.006 % Dose/g Tissue | Biodistribution of 123I-IMP, Brain (control group, 60 Minutes): 1.511 ± 0.011 % Dose/g Tissue | Biodistribution of 123I-IMP, Heart (control group, 60 Minutes): 0.540 ± 0.026 % Dose/g Tissue | Biodistribution of 123I-IMP, Kidney (control group, 60 Minutes): 1.585 ± 0.132 % Dose/g Tissue | Biodistribution of 123I-IMP, Liver (control group, 60 Minutes): 1.442 ± 0.164 % Dose/g Tissue | Biodistribution of 123I-IMP, Lung (control group, 60 Minutes): 5.186 ± 0.616 % Dose/g Tissue | Biodistribution of 123I-IMP, Pancreas (control group, 60 Minutes): 1.957 ± 0.345 % Dose/g Tissue | Biodistribution of 123I-IMP, Spleen (control group, 60 Minutes): 1.290 ± 0.138 % Dose/g Tissue | Biodistribution of 123I-IMP, Stomach (control group, 60 Minutes): 1.245 ± 0.343 % Dose/g Tissue | Biodistribution of 123I-IMP, Blood [1]: 0.238 ± 0.083 % Dose/g Tissue | Biodistribution of 123I-IMP, Brain [1]: 1.584 ± 0.425 % Dose/g Tissue | Biodistribution of 123I-IMP, Heart [1]: 3.769 ± 0.911 % Dose/g Tissue | Biodistribution of 123I-IMP, Kidney [1]: 1.424 ± 0.313 % Dose/g Tissue | Biodistribution of 123I-IMP, Liver [1]: 0.287 ± 0.156 % Dose/g Tissue

Source: patent US20060140857A1, “Method of the administration of drugs with binding affinity for plasma protein and preparation to be used in the method” (NIHON MEDI-PHYSICS CO., LTD., priority 1999, published 2006)
